Marks after values point to notes of the source that are not given here. Where a SMILES comes first, the peptide text is derived from it. Where no end group is shown, it is not given here. [ ]: non-standard residue; d: D form. Phe(ol) = N[C@H](CO)Cc1ccccc1; Dab = NCC[C@H](N)C(=O)O; Dap = NC[C@H](N)C(=O)O; Aib = CC(C)(N)C(=O)O

The subject of one series is F. nucleatum ATCC 25586. As to the kind of experiment: MDC, flow cytometry Syto9/PI membrane disruption assay. The format is cell-based, Fusobacterium nucleatum. The settings on record: for MDC: F. nucleatum ATCC 25586, 90 min peptide/bacteria incubation, Syto9/PI flow cytometry, extrapolated to 100% PI+ cells, average of 3 assays ± SD; for Antimicrobial activity (MDC50): against F. nucleatum, maximum peptide concentration = 1000 µM. An excerpt:
We reasoned that as AMPs disrupt the cytoplasmic membrane we should be able to monitor this disruption using membrane permeable/impermeable fluorescent intercalating DNA dyes that are used to determine the viability of a microbial culture. We initially synthesised melittin (peptide sequence shown in S1 Table) a well characterised, broad-spectrum and potent AMP to investigate whether viability dyes, Syto9 (membrane permeable) and propidium iodide (PI, membrane impermeable), could be used to determine AMP activity, against the melittin-susceptible bacterium Fusobacterium nucleatum. […] Staining cells with 0.1% v/v Syto 9 in 0.9% […] (3.34mM stock solution) and 0.1% v/v PI in saline (50μg/mL stock solution) provided optimal concentrations that gave consistent and distinct cell populations; a membrane intact (Syto9+/PI-) and two membrane disrupted populations (Syto9+/PI+ and Syto9-/PI+; S1 Fig). […] Following from this we then incubated F. nucleatum with variant melittin concentrations and determined the proportion of membrane intact (Syto9+/PI-) and membrane disrupted (PI+ i.e. Syto9+/PI+ and Syto9-/PI+) populations. […] Linear regression of the PI+ values for the peptide concentrations prior to full membrane disruption (% PI+ cells ≤ 99% and ≥ 1–5%) gave an R^2 value of >0.9 and from extrapolation the minimum peptide concentration that induced 100% membrane disruption (MDC) could be determined (Fig 1c, insert). […] Melittin and magainin II are known to have high and low activities against the Gram positive bacterium Streptococcus mutans, respectively. […] Although the standard procedure is a 90 minute incubation of bacteria and AMP, we investigated whether the incubation time could be shortened.
For determination of MDC a 50 μL aliquot of the bacteria/AMP was mixed with 100 μL of 0.9% w/v saline containing 0.1% v/v of SYTO® 9 (3.34mM stock solution) and 0.1% v/v of PI (50μg/mL stock solution) and incubated for 10 minutes at room temperature in the dark. Following incubation the bacterial cell samples were analysed using a Cell Lab Quanta SC MPL flow cytometer (Beckman Coulter) equipped with a 100 W stabilized mercury arc lamp with wavelengths of 365, 404, and 435 nm, and a 488 nm diode laser. The fluorescence from SYTO® 9 was measured through a 525-nm band-pass filter (Fluorescent Channel 1, FL-1), and the red emission of PI was measured with a 670-nm long pass filter (Fluorescent Channel 3, FL-3). A minimum of 100,000 bacterial events were collected and the multi-parametric data analyzed using the Cell Lab Quanta SC software. NB for flow cytometers not fitted with an electrical volume detector for cell counting, the addition of microbeads to the samples can be used to determine cell numbers. MDC was calculated by plotting the percent PI+ cells for the each peptide concentration and fitting a linear curve to the data that is ≤ 99% PI+ cells and ≥ 1–5% PI+ cells (minimum of 4 data points). Inclusion of data points outside of these PI+ cell percentages will result in a positive or negative skewing of the MDC value. By solving the line equation (y = mx + C) for x (peptide concentration) when y = 1 (where 1 = 100% of PI+ cells) the MDC (x) can be determined i.e. MDC = x = (y − C)/m.

Series [1] concerns HEK-293 (ATCC CRL-1573) cells. As to the kind of experiment: Inhibition of cell proliferation assay (MTS). The conditions noted are these: for IC50: HEK-293 cells 5×10^3, EMEM + 10% FBS, 28 h, MTS, A490, linear regression, maximum peptide concentration = 1000 µM; for Therapeutic Index (proliferation): IC50/MDC50 (F. nucleatum), given as x : 1. The format is cell-based. On the procedure:
After 28 h, 20 μL of 3-(4,5-dimethylthiazol-2-yl)-5-(3-carboxymethoxyphenyl)-2-(4-sulfophenyl)-2H-tetrazolium (MTS) solution (CellTiter 96 AQueous Non-Radioactive Cell Proliferation Assay kit, Promega) were added to each well and the plates were incubated for a further 1–2 h at 37°C, 5% CO2 incubator. Cell proliferation was determined by measuring absorbance at 490 nm using a microplate reader (PerkinElmer 1420 Multilabel Counter VICTOR3). Positive and negative controls for inhibition were taken as HEK-293 cells incubated with mytomycin C (5 μg/mL, Sigma Pty Ltd) and HEK-293 cells incubated in media alone, respectively. The percentage of inhibition was calculated using the following formula: % Inhibition = [(A490 test sample—A490 negative control) / (A490 positive control—A490 negative control)] × 100
The percentage of inhibition was plotted against peptide concentration and linear regression analysis was used to determine the AMP concentration needed to inhibit 50% (IC50) of the HEK-293 cells.

In the case of “GIGXFLHSAXXFGXAFVGEIMNS-CONH2 [Magainin-Orn, magainin II analogue, all lysine residues substituted with ornithine]”, in the series with F. nucleatum ATCC 25586, the MDC was 11.4 ± 0.3 µM and the “Antimicrobial activity (MDC50)” value is 5.7 ± 0.2 µM. In series [1], the IC50 came out at 168 ± 42.1 µM and the “Therapeutic Index (proliferation)” value is recorded as 29.4 : 1.
On to `CC(=O)NC(C)(C)C(=O)N1CCC[C@H]1C(=O)NC(C)(C)C(=O)N[C@@H](C)C(=O)NC(C)(C)C(=O)N[C@@H](C)C(=O)N[C@@H](CCC(N)=O)C(=O)NC(C)(C)C(=O)N[C@H](C(=O)NC(C)(C)C(=O)NCC(=O)N[C@@H](CC(C)C)C(=O)NC(C)(C)C(=O)N1CCC[C@H]1C(=O)N[C@H](C(=O)NC(C)(C)C(=O)NC(C)(C)C(=O)N[C@@H](CCC(=O)O)C(=O)N[C@@H](CCC(N)=O)C(=O)N[C@H](CO)Cc1ccccc1)C(C)C)C(C)C` [Alamethicin] (Ac-[Aib]P[Aib]A[Aib]AQ[Aib]V[Aib]GL[Aib]PV[Aib][Aib]EQ[Phe(ol)]; N-terminus assumed), for which the MDC with F. nucleatum ATCC 25586 was 21.1 ± 4.1 µM.
`CC[C@H](C)[C@H](NC(=O)CN)C(=O)NCC(=O)N[C@@H](CCN)C(=O)N[C@@H](Cc1ccccc1)C(=O)N[C@@H](CC(C)C)C(=O)N[C@@H](Cc1c[nH]cn1)C(=O)N[C@@H](CO)C(=O)N[C@@H](C)C(=O)N[C@@H](CCN)C(=O)N[C@@H](CCN)C(=O)N[C@@H](Cc1ccccc1)C(=O)NCC(=O)N[C@@H](CCN)C(=O)N[C@@H](C)C(=O)N[C@@H](Cc1ccccc1)C(=O)N[C@H](C(=O)NCC(=O)N[C@@H](CCC(=O)O)C(=O)N[C@H](C(=O)N[C@@H](CCSC)C(=O)N[C@@H](CC(N)=O)C(=O)N[C@@H](CO)C(N)=O)[C@@H](C)CC)C(C)C` [Magainin-Dab] (H-GIG[Dab]FLHSA[Dab][Dab]FG[Dab]AFVGEIMNS-NH2; N-terminus assumed): in the series on F. nucleatum ATCC 25586, the MDC is 11.0 ± 1.0 µM and the “Antimicrobial activity (MDC50)” value is 5.5 ± 0.5 µM. In series [1], the IC50 was found to be 178 ± 39.4 µM and the “Therapeutic Index (proliferation)” value is reported as 32.4 : 1.
The corresponding values for `CC[C@H](C)[C@H](NC(=O)CN)C(=O)NCC(=O)N[C@@H](CN)C(=O)N[C@@H](Cc1ccccc1)C(=O)N[C@@H](CC(C)C)C(=O)N[C@@H](Cc1c[nH]cn1)C(=O)N[C@@H](CO)C(=O)N[C@@H](C)C(=O)N[C@@H](CN)C(=O)N[C@@H](CN)C(=O)N[C@@H](Cc1ccccc1)C(=O)NCC(=O)N[C@@H](CN)C(=O)N[C@@H](C)C(=O)N[C@@H](Cc1ccccc1)C(=O)N[C@H](C(=O)NCC(=O)N[C@@H](CCC(=O)O)C(=O)N[C@H](C(=O)N[C@@H](CCSC)C(=O)N[C@@H](CC(N)=O)C(=O)N[C@@H](CO)C(N)=O)[C@@H](C)CC)C(C)C` [Magainin-Dap] (H-GIG[Dap]FLHSA[Dap][Dap]FG[Dap]AFVGEIMNS-NH2; N-terminus assumed) are 29.8±6.9^c μM, 14.9 ± 3.5 µM, 285 ± 19.4 µM and 19.1 : 1.
The corresponding values for “GIGRFLHSARRFGRAFVGEIMNS-NH2 [Magainin-Arg]” are 4.9±0.2^c μM, 2.5 ± 0.1 µM, 64.5 ± 3 µM and 25.8 : 1.
Regarding “GIGKFLHSAKKFGKAFVGEIMNS-NH2 [Magainin II]”, in series [1], the IC50 was 95.2 ± 32.2 µM and the “Therapeutic Index (proliferation)” value is 20.2 : 1.

A word on the IC50: it is the midpoint of a concentration-inhibition curve.

Values taken from PMC4795541, “A Rapid and Quantitative Flow Cytometry Method for the Analysis of Membrane Disruptive Antimicrobial Activity” (PLoS ONE, 2016).
